How the values were obtained:
[1] = Equilibrium humidity evaluation 75% RH/40° C., 10 days (Example 8, Experiment 6); assay type: physicochemical; settings: 75% RH/40° C.
Summary of the method: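 Tabernanthalog salt powders (100 mg) were spread evenly in open vials and held at 40 °C and 75% RH. Sub-samples taken at 5 and 10 days were analysed by ^1H NMR, HPLC, XRPD, DSC, TGA and PLM for phase change, chemical degradation and residual solvent.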

[2] = Dynamic vapour sorption (DVS) of selected salts (Example 8); assay type: physicochemical; settings: 0 to 90 to 0% RH, 25° C., dm/dt 0.002%/min
Summary of the method: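 Sorption/desorption isotherms on 20–50 mg sample at 25°C after 60 min at 0% RH: 5% steps to 30%, 10% steps to 90%, then reverse. Equilibrium criterion dm/dt 0.002%/min; kinetic and isotherm curves derived.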

[3] = DVS analyses of the monofumarate salt (Example 5, Experiment Reference 4); assay type: physicochemical; settings: mass equilibrated, 0 to 90% to 0% RH, 25° C.
Method: (§1) The moisture sorption properties of the feed API were analyzed by DVS Intrinsic instrument (Surface Measurement System). Approximately 20 to 50 mg of API was weighed onto an aluminum pan and loaded into the instrument equilibrated at 25° C. The sample was equilibrated under a dry atmosphere (0% relative humidity) for 60 minutes, before increasing the humidity from 0% to 30% at 5% step increment and from 30% to 90% at 10% step increment. A desorption cycle was also applied from 90% to 30% (10% step decrement) and from 30% to 0% (5% step decrement). A rate of change in mass per time unit (dm/dt) of 0.002%/min was set as the equilibrium parameter. Kinetic and isotherm graphs were calculated.
as §1, with “feed API (active pharmaceutical ingredient) were analyzed” for “feed API were analyzed”, “step decrement). […] Kinetic and” for “step decrement). A rate of change in mass per time unit (dm/dt) of 0.002%/min was set as the equilibrium parameter. Kinetic and”, “were calculated. […]” for “were calculated.”

[4] = Solubility determinations in SIF buffers FaSSIF, FeSSIF, FaSSGF (Example 8, Experiment 5); settings: 37 °C, thermodynamic from solid
Summary of the method: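 Suspensions in FaSSIF, FeSSIF or FaSSGF held at 37° C for 24 h, sampled at set time points and centrifuged. Pellets checked by XRPD, wet and dried, for form change.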

[5] = Heat-up/cool-down crystallisation screen of sorbate salt (Example 10, Experiments 5, 8); assay type: physicochemical; settings: Experiment 8; repeat of HUCD crystallisations aiming at Pattern #1 (water) and Pattern #6 (heptane/ethyl formate); wet pellet
Method: The relevant solvent (0.225 ml, 3.0 vol) was added to the appropriate vial and the suspensions were stirred and warmed to temperature. If dissolution was not observed, further solvent was added until the solute dissolved, or aliquots of a secondary co-solvent were added to complete dissolution. Once dissolved, the solutions were left to cool down and stand undisturbed under sub-ambient conditions for several days. After crystallisation was judged complete, the products were isolated by centrifugation and the pellets were dried at 40° C. under reduced pressure. Products from the crystallisation (wet and dry) were initially analysed by XRPD (9-minute method), further analyses of certain products were performed by ^1H NMR, DSC and TGA, if the diffraction pattern indicated differences.

[6] = as above; assay type: physicochemical; settings: Experiment 8; repeat of HUCD crystallisations; dried ca. 2 h under N2 flux at ambient temperature
5-HT2A = 5-HT2A (Homo sapiens, UniProt P28223); settings: reported by Dong et al., Olson et al., Cameron et al.; cited from earlier work
[7] = Calibration curve of non-ionized Tabernanthalog / HPLC sample diluent selection; assay type: physicochemical; settings: acetonitrile/water
Excerpt: Separate portions of Tabernanthalog (native) were weighed out into aluminum boats and were charged to the relevant volumetric flasks. […] Peak areas of the calibrants were plotted against concentration to generate the corresponding calibration curve with slope 27622 and R^2 0.9917 (FIG. 437).
It is noted that tabernanthalog is insoluble in typical HPLC sample diluents, acetonitrile/water. Therefore, DMSO and water were investigated as sample diluents.
Thus, DMSO/water (1/1, v/v) was selected as the appropriate diluent composition to perform the study and generate the calibration curve, for the SIF panel solubility.

[8] = reported by Dong et al., Olson et al., Cameron et al.; cited from earlier work

Sequence of 5-HT2A (P28223 whole entry): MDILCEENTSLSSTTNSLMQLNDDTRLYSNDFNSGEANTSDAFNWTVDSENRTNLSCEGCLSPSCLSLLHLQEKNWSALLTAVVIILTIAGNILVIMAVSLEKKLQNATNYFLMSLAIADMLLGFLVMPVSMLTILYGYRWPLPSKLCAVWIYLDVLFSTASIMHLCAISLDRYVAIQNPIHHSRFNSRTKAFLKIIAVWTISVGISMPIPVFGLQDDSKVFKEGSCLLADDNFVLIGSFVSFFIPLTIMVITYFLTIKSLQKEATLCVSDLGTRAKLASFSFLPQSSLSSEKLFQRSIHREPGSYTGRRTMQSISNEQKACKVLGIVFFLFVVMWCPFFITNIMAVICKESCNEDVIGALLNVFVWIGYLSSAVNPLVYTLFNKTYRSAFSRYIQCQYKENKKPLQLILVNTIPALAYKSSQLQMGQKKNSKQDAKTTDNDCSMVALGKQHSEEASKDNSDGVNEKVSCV

COc1ccc2c3c([nH]c2c1)CCN(C)CC3.O=C(O)/C=C/C(=O)O [8-Methoxy-3-methyl-2,4,5,6-tetrahydro-1H-azepino[4,5-b]indole fumarate salt (polymorph Form A)]
change in chemical purity (trended HPLC) ([1]; after 10 days): slight decrease in chemical purity | water uptake / hydrate formation (TGA, DSC) ([1]; t=5 d and t=10 d): no significant water uptake | powder diffraction pattern versus input (form stability) ([1]; t=5 days and t=10 days): resembled the input phase | DVS sorption/desorption isotherm [2]: hygroscopic isotherm, with negligible hysteresis | DVS isotherm [3]: hygroscopic isotherm with negligible hysteresis | solubility at 24 h ([4]; pH 1.6, fassgf or other biorelevant): > 30 mg/mL | solubility at 24 h ([4]; pH 5, fessif): > 30 mg/mL | solubility at 24 h ([4]; pH 6.5, fassif): > 30 mg/mL

CC=CC=CC(=O)O.COc1ccc2c3c([nH]c2c1)CCN(C)CC3 [Experiment 8-Sample B]
XRPD (centrifuged, wet) [5]: Form A | XRPD (under nitrogen flow) [6]: Form A

COc1ccc2c3c([nH]c2c1)CCN(C)CC3 [tabernanthalog, 8-methoxy-3-methyl-1,2,3,4,5,6-hexahydroazepino[4,5-b]indole]
5-HT2A activity (5-HT2A): have 5-HT2A activity | solubility in typical HPLC sample diluents [7]: insoluble | hallucinogenic effect [8]: non-hallucinogenic
